Laboratory results from PMC7211203 (European Journal of Drug Metabolism and Pharmacokinetics, 2020).
“Also recorded” adds a separate entry of the source. Where two headings read alike, the source gives them in different places.

How the values were obtained:
[1] = type: in vivo, human; conditions: for Vd/F: Vz/F; for tmax: median (minimum, maximum)
CYP3A4 = CYP3A4 (Homo sapiens, UniProt P08684); type: in vivo; conditions: for Change in t1/2 when administered with lenvatinib: D1 and D14 vs D −3
CYP3A = conditions: open-label, fixed-sequence study in 16 cancer patients; cited from earlier work
[2] = D −3, patients of comparison D1 vs D −3
[3] = D −3, patients of comparison D14 vs D −3
[4] = Day −3, midazolam alone, mean (SD)
[5] = Day 1, with single dose of lenvatinib, mean (SD)
[6] = Day 14, with lenvatinib at steady state, mean (SD)
[7] = D1 vs D −3 (single dose of lenvatinib 24 mg)
[8] = D14 vs D −3 (lenvatinib 24 mg at steady state)

Sequence of CYP3A4 (P08684 whole entry): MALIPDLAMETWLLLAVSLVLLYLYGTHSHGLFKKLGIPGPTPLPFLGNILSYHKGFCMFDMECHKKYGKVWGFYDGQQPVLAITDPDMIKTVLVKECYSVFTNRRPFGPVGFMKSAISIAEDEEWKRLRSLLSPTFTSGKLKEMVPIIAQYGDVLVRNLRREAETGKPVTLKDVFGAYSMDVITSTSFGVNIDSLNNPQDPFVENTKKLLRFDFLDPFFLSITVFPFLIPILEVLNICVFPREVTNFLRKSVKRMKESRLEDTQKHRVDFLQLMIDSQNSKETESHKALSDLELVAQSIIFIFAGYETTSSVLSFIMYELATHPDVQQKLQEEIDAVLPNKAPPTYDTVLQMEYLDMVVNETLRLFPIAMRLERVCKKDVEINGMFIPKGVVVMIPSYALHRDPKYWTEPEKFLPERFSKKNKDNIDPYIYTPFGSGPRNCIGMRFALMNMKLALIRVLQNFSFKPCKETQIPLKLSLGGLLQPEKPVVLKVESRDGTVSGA

Cc1ncc2n1-c1ccc(Cl)cc1C(c1ccccc1F)=NC2 [midazolam]
Cmax geometric mean, lenvatinib + midazolam (test) ([1]; D14, comparison D14 vs D −3): 24.76 ng/mL
Cmax geometric mean, midazolam (reference) [1, 2]: 24.73 ng/mL
AUC0–24 geometric mean, midazolam (reference) [1, 3]: 88.30 ng·h/mL
Cmax geometric mean, midazolam (reference) [1, 3]: 24.10 ng/mL
Cmax [1, 4]: 26.5 (10.7) ng/mL
concentration at 1 h ([1]; human, plasma, oral, 4 mg, Plasma concentration, mean (standard deviation), 1 h, D −3 midazolam only): 19 ng/mL
concentration at 2 h ([1]; human, plasma, oral, 4 mg, Plasma concentration, mean (standard deviation), 2 h, D −3 midazolam only): 13.1 ng/mL
concentration at 3 h ([1]; human, plasma, oral, 4 mg, Plasma concentration, mean (standard deviation), 3 h, D −3 midazolam only): 8.78 ng/mL
concentration at 4 h ([1]; human, plasma, oral, 4 mg, Plasma concentration, mean (standard deviation), 4 h, D −3 midazolam only): 6.12 ng/mL
concentration at 6 h ([1]; human, plasma, oral, 4 mg, Plasma concentration, mean (standard deviation), 6 h, D −3 midazolam only): 4.19 ng/mL
concentration at 8 h ([1]; human, plasma, oral, 4 mg, Plasma concentration, mean (standard deviation), 8 h, D −3 midazolam only): 3.24 ng/mL
concentration at 10 h ([1]; human, plasma, oral, 4 mg, Plasma concentration, mean (standard deviation), 10 h, D −3 midazolam only): 2.51 ng/mL
concentration at 24 h ([1]; human, plasma, oral, 4 mg, Plasma concentration, mean (standard deviation), 24 h, D −3 midazolam only): 0.53 ng/mL
Vd/F ([1]; human, plasma, oral, 4 mg, Day −3, midazolam alone, mean (SD)): 382 L
half-life ([1]; human, plasma, oral, 4 mg, t1/2, Day −3, midazolam alone, mean (SD)): 5.87 h
AUC(0-t) ([1]; human, plasma, oral, AUC0–24, Day 14, midazolam with lenvatinib at steady state, mean (SD), n = 19): 117 ng·h/mL
Cmax ([1]; human, plasma, oral, Cmax, Day 1, with single dose of lenvatinib, mean (SD)): 24.8 ng/mL
Cmax ([1]; human, plasma, oral, Cmax, Day 14, with lenvatinib at steady state, mean (SD)): 28.3 ng/mL
concentration at 0.5 h ([1]; human, plasma, oral, Plasma concentration, mean (standard deviation), 0.5 h, D14 multiple doses of lenvatinib and 1 dose of midazolam): 23.7 ng/mL
concentration at 1 h ([1]; human, plasma, oral, Plasma concentration, mean (standard deviation), 1 h, D1 1 dose of lenvatinib and midazolam): 16.5 ng/mL
concentration at 1 h ([1]; human, plasma, oral, Plasma concentration, mean (standard deviation), 1 h, D14 multiple doses of lenvatinib and 1 dose of midazolam): 23.1 ng/mL
concentration at 1.5 h ([1]; human, plasma, oral, Plasma concentration, mean (standard deviation), 1.5 h, D14 multiple doses of lenvatinib and 1 dose of midazolam): 17.8 ng/mL
concentration at 2 h ([1]; human, plasma, oral, Plasma concentration, mean (standard deviation), 2 h, D1 1 dose of lenvatinib and midazolam): 11.3 ng/mL
concentration at 2 h ([1]; human, plasma, oral, Plasma concentration, mean (standard deviation), 2 h, D14 multiple doses of lenvatinib and 1 dose of midazolam): 13.9 ng/mL
concentration at 3 h ([1]; human, plasma, oral, Plasma concentration, mean (standard deviation), 3 h, D1 1 dose of lenvatinib and midazolam): 7.89 ng/mL
concentration at 3 h ([1]; human, plasma, oral, Plasma concentration, mean (standard deviation), 3 h, D14 multiple doses of lenvatinib and 1 dose of midazolam): 9.93 ng/mL
concentration at 4 h ([1]; human, plasma, oral, Plasma concentration, mean (standard deviation), 4 h, D1 1 dose of lenvatinib and midazolam): 5.67 ng/mL
concentration at 4 h ([1]; human, plasma, oral, Plasma concentration, mean (standard deviation), 4 h, D14 multiple doses of lenvatinib and 1 dose of midazolam): 7.58 ng/mL
concentration at 6 h ([1]; human, plasma, oral, Plasma concentration, mean (standard deviation), 6 h, D1 1 dose of lenvatinib and midazolam): 4.08 ng/mL
concentration at 6 h ([1]; human, plasma, oral, Plasma concentration, mean (standard deviation), 6 h, D14 multiple doses of lenvatinib and 1 dose of midazolam): 5.21 ng/mL
concentration at 8 h ([1]; human, plasma, oral, Plasma concentration, mean (standard deviation), 8 h, D1 1 dose of lenvatinib and midazolam): 2.96 ng/mL
concentration at 8 h ([1]; human, plasma, oral, Plasma concentration, mean (standard deviation), 8 h, D14 multiple doses of lenvatinib and 1 dose of midazolam): 4.05 ng/mL
concentration at 10 h ([1]; human, plasma, oral, Plasma concentration, mean (standard deviation), 10 h, D1 1 dose of lenvatinib and midazolam): 2.39 ng/mL
concentration at 10 h ([1]; human, plasma, oral, Plasma concentration, mean (standard deviation), 10 h, D14 multiple doses of lenvatinib and 1 dose of midazolam): 3.47 ng/mL
concentration at 24 h ([1]; human, plasma, oral, Plasma concentration, mean (standard deviation), 24 h, D1 1 dose of lenvatinib and midazolam): 0.628 ng/mL
concentration at 24 h ([1]; human, plasma, oral, Plasma concentration, mean (standard deviation), 24 h, D14 multiple doses of lenvatinib and 1 dose of midazolam): 1.25 ng/mL
Vd/F ([1]; human, plasma, oral, Day 1, with single dose of lenvatinib, mean (SD)): 481 L
Vd/F ([1]; human, plasma, oral, Day 14, with lenvatinib at steady state, mean (SD)): 544 L
half-life ([1]; human, plasma, oral, t1/2, Day 1, with single dose of lenvatinib, mean (SD)): 6.48 h
half-life ([1]; human, plasma, oral, t1/2, Day 14, with lenvatinib at steady state, mean (SD)): 6.76 h
tmax ([1]; human, plasma, oral, tmax, Day 1, with single dose of lenvatinib): 0.63 h
Change in t1/2 when administered with lenvatinib (CYP3A4): little change; also recorded: no statistically significant change
Difference in median tmax (CYP3A4; D1 vs D −3): 0.00 h
Difference in median tmax (CYP3A4; D14 vs D −3): 0.00 h
Change in CL/F and Vz/F over time (CYP3A4; D −3, D1, D14): no statistically significant change

CO[C@H]1C[C@@H]2CC[C@@H](C)[C@@](O)(O2)C(=O)C(=O)N2CCCC[C@H]2C(=O)O[C@H]([C@H](C)C[C@@H]2CC[C@@H](OP(C)(C)=O)[C@H](OC)C2)CC(=O)[C@H](C)/C=C(\C)[C@@H](O)[C@@H](OC)C(=O)[C@H](C)C[C@H](C)/C=C/C=C/C=C/1C [Ridaforolimus, ridaforolimus]
Impact on CYP3A (midazolam probe) (CYP3A): minimal inhibitory impact on CYP3A

OCc1ncc2n1-c1ccc(Cl)cc1C(c1ccccc1F)=NC2 [1′-OH midazolam, 1′-hydroxy-midazolam]
Plasma concentration, mean (standard deviation) ([1]; 0.5 h, D1 1 dose of lenvatinib and midazolam): 10.433 (11.8436) ng/mL
Plasma concentration, mean (standard deviation) ([1]; 0.5 h, D14 multiple doses of lenvatinib and 1 dose of midazolam): 8.048 (12.1629) ng/mL
Plasma concentration, mean (standard deviation) ([1]; 0.5 h, D −3 midazolam only): 7.929 (8.1952) ng/mL
Plasma concentration, mean (standard deviation) ([1]; 1 h, D1 1 dose of lenvatinib and midazolam): 9.230 (9.8222) ng/mL
Plasma concentration, mean (standard deviation) ([1]; 1 h, D14 multiple doses of lenvatinib and 1 dose of midazolam): 8.884 (8.9281) ng/mL
Plasma concentration, mean (standard deviation) ([1]; 1 h, D −3 midazolam only): 8.259 (6.9675) ng/mL
Plasma concentration, mean (standard deviation) ([1]; 1.5 h, D1 1 dose of lenvatinib and midazolam): 8.265 (9.0440) ng/mL
Plasma concentration, mean (standard deviation) ([1]; 1.5 h, D14 multiple doses of lenvatinib and 1 dose of midazolam): 7.314 (6.7286) ng/mL
Plasma concentration, mean (standard deviation) ([1]; 1.5 h, D −3 midazolam only): 7.307 (5.9056) ng/mL
Plasma concentration, mean (standard deviation) ([1]; 2 h, D1 1 dose of lenvatinib and midazolam): 6.921 (8.0144) ng/mL
Plasma concentration, mean (standard deviation) ([1]; 2 h, D14 multiple doses of lenvatinib and 1 dose of midazolam): 5.767 (5.0953) ng/mL
Plasma concentration, mean (standard deviation) ([1]; 2 h, D −3 midazolam only): 5.736 (4.1774) ng/mL
Plasma concentration, mean (standard deviation) ([1]; 3 h, D1 1 dose of lenvatinib and midazolam): 4.888 (7.3050) ng/mL
Plasma concentration, mean (standard deviation) ([1]; 3 h, D14 multiple doses of lenvatinib and 1 dose of midazolam): 4.027 (3.2372) ng/mL
Plasma concentration, mean (standard deviation) ([1]; 3 h, D −3 midazolam only): 3.698 (2.9719) ng/mL
Plasma concentration, mean (standard deviation) ([1]; 4 h, D1 1 dose of lenvatinib and midazolam): 3.395 (5.2011) ng/mL
Plasma concentration, mean (standard deviation) ([1]; 4 h, D14 multiple doses of lenvatinib and 1 dose of midazolam): 2.919 (2.1611) ng/mL
Plasma concentration, mean (standard deviation) ([1]; 4 h, D −3 midazolam only): 2.359 (1.9899) ng/mL
Plasma concentration, mean (standard deviation) ([1]; 6 h, D1 1 dose of lenvatinib and midazolam): 2.059 (2.3381) ng/mL
Plasma concentration, mean (standard deviation) ([1]; 6 h, D14 multiple doses of lenvatinib and 1 dose of midazolam): 1.773 (1.4213) ng/mL
Plasma concentration, mean (standard deviation) ([1]; 6 h, D −3 midazolam only): 1.447 (1.4379) ng/mL
Plasma concentration, mean (standard deviation) ([1]; 8 h, D1 1 dose of lenvatinib and midazolam): 1.132 (1.0593) ng/mL
Plasma concentration, mean (standard deviation) ([1]; 8 h, D14 multiple doses of lenvatinib and 1 dose of midazolam): 1.372 (1.2790) ng/mL
Plasma concentration, mean (standard deviation) ([1]; 8 h, D −3 midazolam only): 1.024 (0.9525) ng/mL
Plasma concentration, mean (standard deviation) ([1]; 10 h, D1 1 dose of lenvatinib and midazolam): 0.852 (0.7166) ng/mL
Plasma concentration, mean (standard deviation) ([1]; 10 h, D14 multiple doses of lenvatinib and 1 dose of midazolam): 1.055 (1.0511) ng/mL
Plasma concentration, mean (standard deviation) ([1]; 10 h, D −3 midazolam only): 0.767 (0.6376) ng/mL
Plasma concentration, mean (standard deviation) ([1]; 24 h, D1 1 dose of lenvatinib and midazolam): 0.186 (0.1472) ng/mL
Plasma concentration, mean (standard deviation) ([1]; 24 h, D14 multiple doses of lenvatinib and 1 dose of midazolam): 0.282 (0.1998) ng/mL
Plasma concentration, mean (standard deviation) ([1]; 24 h, D −3 midazolam only): 0.158 (0.1110) ng/mL
AUC0–24 geometric mean, lenvatinib + midazolam (test) ([1]; D1, comparison D1 vs D −3): 37.91 ng·h/mL
Cmax geometric mean, lenvatinib + midazolam (test) ([1]; D1, comparison D1 vs D −3): 9.54 ng/mL
AUC0–24 geometric mean, lenvatinib + midazolam (test) ([1]; D14, comparison D14 vs D −3): 36.93 ng·h/mL
Cmax geometric mean, lenvatinib + midazolam (test) ([1]; D14, comparison D14 vs D −3): 8.24 ng/mL
AUC0–24 geometric mean, midazolam (reference) [1, 2]: 33.84 ng·h/mL
Cmax geometric mean, midazolam (reference) [1, 2]: 9.04 ng/mL
AUC0–24 geometric mean, midazolam (reference) [1, 3]: 30.81 ng·h/mL
Cmax geometric mean, midazolam (reference) [1, 3]: 8.76 ng/mL
AUC0–24 ([1]; Day 1, midazolam with single dose of lenvatinib 24 mg, mean (SD), n = 28): 48.6 (47.8) ng × h/mL
Cmax [1, 5]: 12.7 (11.6) ng/mL
t1/2 [1, 5]: 5.48 (2.26) h
tmax ([1]; Day 1, with single dose of lenvatinib): 0.75 (0.25, 2.00) h
AUC0–24 ([1]; Day 14, midazolam with lenvatinib at steady state, mean (SD), n = 19): 41.3 (34.3) ng × h/mL
Cmax [1, 6]: 10.7 (11.6) ng/mL
t1/2 [1, 6]: 5.53 (1.99) h
tmax ([1]; Day 14, with lenvatinib at steady state): 0.77 (0.25, 1.50) h
AUC0–24 ([1]; Day −3, midazolam 4 mg oral alone, mean (SD), n = 29): 38.5 (26.5) ng × h/mL
Cmax [1, 4]: 11.0 (8.64) ng/mL
t1/2 [1, 4]: 5.58 (1.15) h
tmax ([1]; Day −3, midazolam alone): 0.75 (0.25, 2.02) h
Change in t1/2 when administered with lenvatinib (CYP3A4): no statistically significant change
Difference in median tmax (CYP3A4; D1 vs D −3): 0.00 h
AUC0–24 geometric mean ratio (test/reference) (CYP3A4; [7]): 1.120
Cmax geometric mean ratio (test/reference) (CYP3A4; [7]): 1.055
Difference in median tmax (CYP3A4; D14 vs D −3): 0.00 h
AUC0–24 geometric mean ratio (test/reference) (CYP3A4; [8]): 1.199
Cmax geometric mean ratio (test/reference) (CYP3A4; [8]): 0.940
